# Source: US3969523A, “Antiphlogistic pharmaceutical compositions containing a 1-(nicotinoyl or isonicotinoyl)-3-biphenylyl-alkanone-(2)” (Boehringer Ingelheim GmbH, priority 1973, dated 1976)
# Assays:
# [1] = test system: kaolin-induced edema of the hind paw of the rat; assay: Antiphlogistic activity: antiexsudative effect on kaolin-induced edema of the hind paw of the rat, oral; assay type: in vivo; conditions: p.o., dose leading to 35% reduction of swelling, graphically determined
# Protocol: (§1) The antiphlogistic activity was tested to determine the antiexsudative effect on the kaolin-induced edema (see Hillebrecht in Arzneimittelforschung 4, 607 - 614 (1954) and the carrageenin-induced edema (see Winter in Proc. Soc. Exper. Biol. Med. 111, 544 (1962)) of the hind paw of the rat after oral administration of at least 3 doses to at least 10 animals per dose. The dose leading to a 35% reduction of the swelling (ED35) was graphically determined.
# in vivo = conditions: rat, po
# Protocol: The ulcerogenic activity in the rat was determined after oral administration of the compound for 3 times after 24 hours each time. The animals were killed 4 hours after that, and the number of the animals having an ulcer was recorded.
# [2] = Peroral acute toxicity in rats; conditions: in vivo, po; rat; 50% died within 14 days; Litchfield and Wilcoxon
# Protocol: The peroral acute toxicity of the compounds was determined on groups of 10 rats each.
# [3] = test system: carrageenin-induced edema of the hind paw of the rat; assay: Antiphlogistic activity: antiexsudative effect on carrageenin-induced edema of the hind paw of the rat, oral; assay type: in vivo; conditions: p.o., dose leading to 35% reduction of swelling, graphically determined
# Protocol: as §1
smiles,measurement,setting,value
"CC(C(=O)COC(=O)c1ccncc1)c1ccc(-c2ccccc2F)cc1 (stereo not shown) [A, 1-isonicotinoyloxy-3-(2'-fluoro-4""-biphenylyl)-butanone-(2)]",ED35,[1],14 mg/kg
same,TD50,in vivo,71 mg/kg
same,LD50 at 336 h,[2],1170 mg/kg
same,ED35,[3],22.5 mg/kg
